Assay results published in paper PMC5218480 (PLoS ONE, 2017).

Tested on: MV-4-11 cells
Assay: Gene expression microarray analysis (Affymetrix PrimeView) and GSEA
Type: cell-based, human
Set-up: RFU PODN (11730768_x_at) / Fold change /veh PODN (11730768_x_at) / RFU LINC00158 (11744669_a_at) / Fold change /veh LINC00158 (11744669_a_at) / RFU DUSP10 (11751237_a_at) / Fold change /veh DUSP10 (11751237_a_at) / RFU ID3 (11757404_x_at) / Fold change /veh ID3 (11757404_x_at) / RFU PLEKHG5 (11737974_s_at) / Fold change /veh PLEKHG5 (11737974_s_at) / RFU LRRC4B (11730491_at) / Fold change /veh LRRC4B (11730491_at) / RFU GIMAP4 (11747438_a_at) / Fold change /veh GIMAP4 (11747438_a_at) / RFU KRT8 (11758183_x_at) / Fold change /veh KRT8 (11758183_x_at) / RFU CNN1 (11734310_a_at) / Fold change /veh CNN1 (11734310_a_at) / RFU VPS37D (11726825_at) / Fold change /veh VPS37D (11726825_at) / RFU C10orf10 (11716522_x_at) / Fold change /veh C10orf10 (11716522_x_at) / RFU KIR2DL2 /// KIR2DL4 /// KIR2DL5A /// KIR2DL5B /// KIR2DS1 /// KIR2DS2 /// KIR2DS3 /// KIR2DS4 /// KIR3DL3 /// KIR3DL3 /// KIR3DS1 (11738374_at) / Fold change /veh KIR2DL2 /// KIR2DL4 /// KIR2DL5A /// KIR2DL5B /// KIR2DS1 /// KIR2DS2 /// KIR2DS3 /// KIR2DS4 /// KIR3DL3 /// KIR3DL3 /// KIR3DS1 (11738374_at) / RFU C1QL1 (11718748_at) / Fold change /veh C1QL1 (11718748_at) / RFU TMPRSS4 (11747572_a_at) / Fold change /veh TMPRSS4 (11747572_a_at) / RFU HAMP (11756126_x_at) / Fold change /veh HAMP (11756126_x_at) / RFU RNFT2 (11725882_a_at) / Fold change /veh RNFT2 (11725882_a_at) / RFU NR4A2 (11747474_a_at) / Fold change /veh NR4A2 (11747474_a_at) / RFU ABCC12 (11746883_a_at) / Fold change /veh ABCC12 (11746883_a_at) / RFU TMEM136 (11760407_x_at) / Fold change /veh TMEM136 (11760407_x_at) / RFU CLDN22 /// WWC2 (11732394_at) / Fold change /veh CLDN22 /// WWC2 (11732394_at) / RFU HLA-DPB1 (11760878_x_at) / Fold change /veh HLA-DPB1 (11760878_x_at) / RFU SPINT1 (11716480_a_at) / Fold change /veh SPINT1 (11716480_a_at) / RFU GAP43 (11754022_s_at) / Fold change /veh GAP43 (11754022_s_at) / RFU A4GNT (11735810_at) / Fold change /veh A4GNT (11735810_at) / RFU PRB3 (11715151_x_at) / Fold change /veh PRB3 (11715151_x_at) / RFU TUBB4B (11761932_at) / Fold change /veh TUBB4B (11761932_at) / RFU CAPN14 (11732068_a_at) / Fold change /veh CAPN14 (11732068_a_at) / RFU TMCC2 (11721928_a_at) / Fold change /veh TMCC2 (11721928_a_at) / RFU IRGQ (11745062_a_at) / Fold change /veh IRGQ (11745062_a_at) / RFU FAM174B (11720279_a_at) / Fold change /veh FAM174B (11720279_a_at) / RFU TMPRSS4 (11748680_a_at) / Fold change /veh TMPRSS4 (11748680_a_at) / RFU FAM212B (11763350_a_at) / Fold change /veh FAM212B (11763350_a_at) / RFU PLEKHG5 (11743358_a_at) / Fold change /veh PLEKHG5 (11743358_a_at) / RFU ZSCAN30 (11745921_a_at) / Fold change /veh ZSCAN30 (11745921_a_at) / RFU CMKLR1 (11741424_a_at) / Fold change /veh CMKLR1 (11741424_a_at) / RFU LOC101060620 /// MAPK8IP1 (11723275_at) / Fold change /veh LOC101060620 /// MAPK8IP1 (11723275_at) / RFU SPTSSB (11747773_x_at) / Fold change /veh SPTSSB (11747773_x_at) / RFU PRSS12 (11739890_at) / Fold change /veh PRSS12 (11739890_at) / RFU BIN1 (11741810_x_at) / Fold change /veh BIN1 (11741810_x_at) / RFU WNT11 (11732464_a_at) / Fold change /veh WNT11 (11732464_a_at) / RFU C10orf10 (11716521_a_at) / Fold change /veh C10orf10 (11716521_a_at) / RFU C5orf56 (11738089_at) / Fold change /veh C5orf56 (11738089_at) / RFU CYB561 (11721691_x_at) / Fold change /veh CYB561 (11721691_x_at) / RFU ANKRD19P (11752326_a_at) / Fold change /veh ANKRD19P (11752326_a_at) / RFU OR2T12 /// OR2T33 /// OR2T8 (11738714_s_at) / Fold change /veh OR2T12 /// OR2T33 /// OR2T8 (11738714_s_at) / RFU VCAN (11748164_a_at) / Fold change /veh VCAN (11748164_a_at) / RFU JSRP1 (11732532_at) / Fold change /veh JSRP1 (11732532_at) / RFU KRTAP10-11 (11738290_x_at) / Fold change /veh KRTAP10-11 (11738290_x_at) / RFU MYO3A (11730013_a_at) / Fold change /veh MYO3A (11730013_a_at) / RFU EBF3 (11725865_a_at) / Fold change /veh EBF3 (11725865_a_at) / RFU CAMK2N1 (11719241_x_at) / Fold change /veh CAMK2N1 (11719241_x_at) / RFU C5orf56 (11738088_a_at) / Fold change /veh C5orf56 (11738088_a_at) / RFU OLFML3 (11715873_a_at) / Fold change /veh OLFML3 (11715873_a_at) / RFU LOC100653217 /// NTM (11731650_a_at) / Fold change /veh LOC100653217 /// NTM (11731650_a_at) / RFU MAPK11 (11762145_a_at) / Fold change /veh MAPK11 (11762145_a_at) / RFU FIZ1 (11724087_x_at) / Fold change /veh FIZ1 (11724087_x_at) / RFU OASL (11726364_x_at) / Fold change /veh OASL (11726364_x_at) / RFU SOX15 (11748057_x_at) / Fold change /veh SOX15 (11748057_x_at) / RFU CD79A (11719716_a_at) / Fold change /veh CD79A (11719716_a_at) / RFU HIST1H1D (11736915_at) / Fold change /veh HIST1H1D (11736915_at) / RFU CASKIN2 (11723855_a_at) / Fold change /veh CASKIN2 (11723855_a_at) / RFU LOC730098 (11760151_x_at) / Fold change /veh LOC730098 (11760151_x_at) / RFU OR4N2 (11742367_at) / Fold change /veh OR4N2 (11742367_at) / RFU PRRT2 (11749266_a_at) / Fold change /veh PRRT2 (11749266_a_at) / RFU SNX32 (11753110_a_at) / Fold change /veh SNX32 (11753110_a_at) / RFU CDHR5 (11726645_a_at) / Fold change /veh CDHR5 (11726645_a_at) / RFU RCAN1 (11760418_a_at) / Fold change /veh RCAN1 (11760418_a_at) / RFU FAM167A (11723789_a_at) / Fold change /veh FAM167A (11723789_a_at) / RFU FAM26E (11764081_at) / Fold change /veh FAM26E (11764081_at) / RFU ISYNA1 (11749810_s_at) / Fold change /veh ISYNA1 (11749810_s_at) / RFU ACY1 (11761880_at) / Fold change /veh ACY1 (11761880_at) / RFU 11764098_at / Fold change /veh 11764098_at / RFU SAMD14 (11745864_x_at) / Fold change /veh SAMD14 (11745864_x_at) / RFU NPB (11741838_a_at) / Fold change /veh NPB (11741838_a_at) / RFU TMPRSS6 (11731388_a_at) / Fold change /veh TMPRSS6 (11731388_a_at) / RFU KRTAP10-2 (11738614_at) / Fold change /veh KRTAP10-2 (11738614_at) / RFU ARHGAP8 /// PRR5-ARHGAP8 (11727945_x_at) / Fold change /veh ARHGAP8 /// PRR5-ARHGAP8 (11727945_x_at) / RFU KRTAP5-7 /// NADSYN1 (11734609_at) / Fold change /veh KRTAP5-7 /// NADSYN1 (11734609_at) / RFU RASL12 (11751679_a_at) / Fold change /veh RASL12 (11751679_a_at) / RFU CDKN2B (11736163_a_at) / Fold change /veh CDKN2B (11736163_a_at) / RFU PRF1 (11729649_at) / Fold change /veh PRF1 (11729649_at) / RFU, ZNF638 /// ZNF638-IT1 / Fold change vs veh, ZNF638 /// ZNF638-IT1 / RFU, PANK3 / Fold change vs veh, PANK3 / RFU, SH3YL1 / Fold change vs veh, SH3YL1 / RFU, ZEB2 / Fold change vs veh, ZEB2 / RFU, NRIP1 / Fold change vs veh, NRIP1 / RFU, PTTG1IP / Fold change vs veh, PTTG1IP / RFU, CAPN2 / Fold change vs veh, CAPN2 / RFU, MED14 / Fold change vs veh, MED14 / RFU, SNORA58 / Fold change vs veh, SNORA58 / RFU, C1orf63 / Fold change vs veh, C1orf63 / RFU, LRRFIP1 / Fold change vs veh, LRRFIP1 / RFU, NDUFAF7 / Fold change vs veh, NDUFAF7 / RFU, SLC12A2 / Fold change vs veh, SLC12A2 / RFU, IBTK / Fold change vs veh, IBTK / RFU, ESF1 / Fold change vs veh, ESF1 / Fold change vs veh, TMEM50B / RFU, TAOK1 / Fold change vs veh, TAOK1 / RFU, ACBD3 / Fold change vs veh, ACBD3 / RFU, TMA16 / Fold change vs veh, TMA16 / RFU, RWDD3 / Fold change vs veh, RWDD3 / RFU, BCAT1 / Fold change vs veh, BCAT1 / RFU, EDEM3 / Fold change vs veh, EDEM3 / RFU, TMEM33 / Fold change vs veh, TMEM33 / RFU, WDR75 / Fold change vs veh, WDR75 / RFU, AHCTF1 / Fold change vs veh, AHCTF1 / RFU, TFRC / Fold change vs veh, TFRC / RFU, ZDHHC17 / Fold change vs veh, ZDHHC17 / RFU, NOM1 / Fold change vs veh, NOM1 / RFU, ARL8B / Fold change vs veh, ARL8B / RFU, ZBTB11 / Fold change vs veh, ZBTB11 / RFU, TAMM41 / Fold change vs veh, TAMM41 / RFU, KIAA1704 /// LOC100996395 / Fold change vs veh, KIAA1704 /// LOC100996395 / RFU, ING1 / Fold change vs veh, ING1 / RFU, TRMT61B / Fold change vs veh, TRMT61B / RFU, FUBP3 / Fold change vs veh, FUBP3 / RFU, TP53 / Fold change vs veh, TP53 / RFU, TNKS2 / Fold change vs veh, TNKS2 / RFU, ZFP14 / Fold change vs veh, ZFP14 / RFU, ACTR2 / Fold change vs veh, ACTR2 / RFU, PPP3R1 / Fold change vs veh, PPP3R1 / RFU, PIK3R1 / Fold change vs veh, PIK3R1 / RFU, HNRNPA1 / Fold change vs veh, HNRNPA1 / RFU, RNF170 / Fold change vs veh, RNF170 / RFU, ZNF28 / Fold change vs veh, ZNF28 / RFU, RNGTT / Fold change vs veh, RNGTT / RFU, OGT / Fold change vs veh, OGT / RFU, BRD1 / Fold change vs veh, BRD1 / RFU, MARS / Fold change vs veh, MARS / RFU, ZNF655 / Fold change vs veh, ZNF655 / RFU, FAHD1 / Fold change vs veh, FAHD1 / RFU, BDP1 / Fold change vs veh, BDP1 / RFU, LRRCC1 / Fold change vs veh, LRRCC1 / RFU, ARID1A / Fold change vs veh, ARID1A / RFU, ZNF146 / Fold change vs veh, ZNF146 / RFU, ZNF330 / Fold change vs veh, ZNF330 / RFU, GPN3 / Fold change vs veh, GPN3 / RFU, C9orf123 / Fold change vs veh, C9orf123 / RFU, N4BP2L2 / Fold change vs veh, N4BP2L2 / RFU, ARFIP1 / Fold change vs veh, ARFIP1 / RFU, FAM179B / Fold change vs veh, FAM179B / RFU, BCL10 / Fold change vs veh, BCL10 / RFU, UHRF1BP1L / Fold change vs veh, UHRF1BP1L / RFU, BET1 / Fold change vs veh, BET1 / RFU, CNOT2 / Fold change vs veh, CNOT2 / RFU, ZNF268 / Fold change vs veh, ZNF268 / Fold change vs veh, ZNF507 / RFU, DGCR2 / Fold change vs veh, DGCR2 / RFU, WDSUB1 / Fold change vs veh, WDSUB1 / Fold change vs veh, HSP90B1 /// MIR3652 / RFU, ADSS / Fold change vs veh, ADSS / RFU, GK / Fold change vs veh, GK / RFU, ZNF148 / Fold change vs veh, ZNF148 / RFU, TAF9 / Fold change vs veh, TAF9 / RFU, SLC1A5 / Fold change vs veh, SLC1A5 / RFU, SLMO2 / Fold change vs veh, SLMO2 / RFU, ABCC4 / Fold change vs veh, ABCC4 / RFU, LOC101060439 /// RAP1B / Fold change vs veh, LOC101060439 /// RAP1B / RFU, RFX7 / Fold change vs veh, RFX7 / RFU, GTPBP10 / Fold change vs veh, GTPBP10 / RFU, CNEP1R1 / Fold change vs veh, CNEP1R1 / RFU, BIVM-ERCC5 /// ERCC5 / Fold change vs veh, BIVM-ERCC5 /// ERCC5 / RFU, ILF3 / Fold change vs veh, ILF3 / RFU 11762660_at / Fold change /veh 11762660_at / RFU VCAN (11757783_s_at) / Fold change /veh VCAN (11757783_s_at) / RFU DDX43 (11728927_at) / Fold change /veh DDX43 (11728927_at) / RFU KRT8 (11758188_x_at) / Fold change /veh KRT8 (11758188_x_at) / RFU NKD1 (11759106_at) / Fold change /veh NKD1 (11759106_at) / RFU SRD5A1 (11742802_a_at) / Fold change /veh SRD5A1 (11742802_a_at) / RFU TPSAB1 /// TPSB2 (11721975_s_at) / Fold change /veh TPSAB1 /// TPSB2 (11721975_s_at) / RFU GSTM3 (11746129_a_at) / Fold change /veh GSTM3 (11746129_a_at) / RFU IL23R (11737362_x_at) / Fold change /veh IL23R (11737362_x_at) / RFU TMEM51 (11727254_a_at) / Fold change /veh TMEM51 (11727254_a_at) / RFU PIWIL2 (11732686_x_at) / Fold change /veh PIWIL2 (11732686_x_at) / RFU ORM1 (11744905_x_at) / Fold change /veh ORM1 (11744905_x_at) / RFU CCDC152 (11743942_at) / Fold change /veh CCDC152 (11743942_at) / RFU ECM1 (11717891_a_at) / Fold change /veh ECM1 (11717891_a_at) / RFU IL23R (11748794_a_at) / Fold change /veh IL23R (11748794_a_at) / RFU TNFAIP8L3 (11732012_x_at) / Fold change /veh TNFAIP8L3 (11732012_x_at) / RFU MBOAT4 (11741988_at) / Fold change /veh MBOAT4 (11741988_at) / RFU 11764193_at / Fold change /veh 11764193_at / RFU TMEM53 (11763286_at) / Fold change /veh TMEM53 (11763286_at) / RFU MAGEB2 (11727129_at) / Fold change /veh MAGEB2 (11727129_at) / RFU TMEM200A (11744735_a_at) / Fold change /veh TMEM200A (11744735_a_at) / RFU CCDC152 (11751479_a_at) / Fold change /veh CCDC152 (11751479_a_at) / RFU FAM211A (11726209_a_at) / Fold change /veh FAM211A (11726209_a_at) / RFU RGS16 (11746705_a_at) / Fold change /veh RGS16 (11746705_a_at) / RFU VCAN (11755009_s_at) / Fold change /veh VCAN (11755009_s_at) / RFU RHOB (11743442_s_at) / Fold change /veh RHOB (11743442_s_at) / RFU RGS16 (11720943_a_at) / Fold change /veh RGS16 (11720943_a_at) / RFU RGS16 (11720944_at) / Fold change /veh RGS16 (11720944_at) / RFU, VPS4B / Fold change vs veh, VPS4B / RFU, CREB1 / Fold change vs veh, CREB1 / RFU, DNAJC13 / Fold change vs veh, DNAJC13 / RFU, GNAQ / Fold change vs veh, GNAQ / RFU, CDK5R1 / Fold change vs veh, CDK5R1 / RFU, ZRANB3 / Fold change vs veh, ZRANB3 / RFU, CUL4A / Fold change vs veh, CUL4A / RFU, CCNY / Fold change vs veh, CCNY / RFU, UFL1 / Fold change vs veh, UFL1 / RFU, COG3 / Fold change vs veh, COG3 / RFU, DIAPH2 / Fold change vs veh, DIAPH2 / RFU, SKA2 / Fold change vs veh, SKA2 / RFU, AFF3 / Fold change vs veh, AFF3 / RFU, LMF1 / Fold change vs veh, LMF1 / RFU, IPO11 / Fold change vs veh, IPO11 / RFU, DFFB / Fold change vs veh, DFFB / RFU, FOXP1 / Fold change vs veh, FOXP1 / RFU, CARD8 / Fold change vs veh, CARD8 / RFU, STRN3 / Fold change vs veh, STRN3 / RFU, ADK / Fold change vs veh, ADK / RFU, RASSF2 / Fold change vs veh, RASSF2 / RFU, WIPF1 / Fold change vs veh, WIPF1 / RFU, LARP1B / Fold change vs veh, LARP1B / RFU, RASA1 / Fold change vs veh, RASA1 / RFU, RB1 / Fold change vs veh, RB1 / RFU, PPFIA1 / Fold change vs veh, PPFIA1 / RFU, MAT2A / Fold change vs veh, MAT2A / RFU, CCT5 / Fold change vs veh, CCT5 / RFU, WDR92 / Fold change vs veh, WDR92 / RFU, CUX1 / Fold change vs veh, CUX1 / RFU, TTC7A / Fold change vs veh, TTC7A / RFU, TMEM135 / Fold change vs veh, TMEM135 / RFU, DEPTOR / Fold change vs veh, DEPTOR / RFU, CPM / Fold change vs veh, CPM / RFU, DNAJB6 / Fold change vs veh, DNAJB6 / RFU, CACNA2D3 / Fold change vs veh, CACNA2D3 / RFU, DTX4 / Fold change vs veh, DTX4 / RFU, TFCP2 / Fold change vs veh, TFCP2 / RFU, GMCL1 /// GMCL1P1 / Fold change vs veh, GMCL1 /// GMCL1P1 / RFU, AEBP2 / Fold change vs veh, AEBP2 / RFU, SNHG1 /// SNORD22 /// SNORD25 /// SNORD26 /// SNORD27 /// SNORD28 /// SNORD29 /// SNORD31 / Fold change vs veh, SNHG1 /// SNORD22 /// SNORD25 /// SNORD26 /// SNORD27 /// SNORD28 /// SNORD29 /// SNORD31 / Fold change (Aza/veh), C12orf56 (ProbeSet 11735607_a_at) / Fold change (ACY-1035/veh), C12orf56 (ProbeSet 11735607_a_at) / Fold change (Aza/veh), FGFR1OP (ProbeSet 11751329_s_at) / Fold change (ACY-1035/veh), FGFR1OP (ProbeSet 11751329_s_at) / Fold change (Aza/veh), VPS36 (ProbeSet 11739960_a_at) / Fold change (ACY-1035/veh), VPS36 (ProbeSet 11739960_a_at) / RFU SYPL1 (11715823_x_at) / Fold change /veh SYPL1 (11715823_x_at) / RFU IGFBP7 (11715501_s_at) / Fold change /veh IGFBP7 (11715501_s_at) / RFU REEP3 (11722064_at) / Fold change /veh REEP3 (11722064_at) / RFU IGLL1 (11728026_x_at) / Fold change /veh IGLL1 (11728026_x_at): dose or concentration left out as unconfirmed
Details: MV-4-11 cells, 48 hours

## Nc1ccc(-c2cccs2)cc1NC(=O)c1ccc2c(c1)cc(C1CC1)n2CCN1CCOCC1 [ACY-1035]
  RFU LOC730098 (11760151_x_at): 35.48 RFU
